Consider 30 compounds from ChEMBL document CHEMBL1128553, “Synthesis of 1,4,7,8,9,10-hexahydro-9-methyl-6-nitropyrido[3,4-f]- quinoxaline-2,3-dione and related quinoxalinediones: characterization of alpha-amino-3-hydroxy-5-methyl-4-isoxazolepropionic acid (and N-methyl-D-aspartate) receptor and anticonvulsant activity” (J Med Chem, 1995).

Some results are limits rather than exact numbers.

In assay [1] the target is Glutamate receptor ionotropic, kainate. Briefly: Binding affinity for the ionotropic glutamate receptor kainate in rat brain synaptic membranes using [3H]kainate as radioligand. The format is cell membranes.
Assay [2] deals with Glutamate receptor ionotropic, AMPA (Rattus norvegicus, UniProt P19490+P19491+P19492+P19493).
Description: Binding affinity was determined against ionotropic glutamate receptor AMPA in rat brain synaptic membranes using [3H]AMPA as radioligand
In assay [3] the target is Glutamate receptor ionotropic, NMDA 1 (Rattus norvegicus, UniProt P35439). The assay can be described thus: Affinity for N-methyl-D-aspartate glutamate receptor 1 in rat brain synaptic membranes, using [3H]glycine as radioligand. In kind it is cell membranes.

In the case of `CN1CCc2c(c(C(=O)O)cc3nc(O)c(O)nc23)C1`, the half-maximal inhibitory concentration (IC50) in assay [1] was 36 µM; in assay [2], 56 µM.
The matching figures for `Oc1nc2ccc3c(c2nc1O)CCNC3`: 17 µM and 12 µM.
The matching figures for `Oc1nc2ccc3c(c2nc1O)CCCN3`: 8.9 µM and 24 µM.
As for `O=c1[nH]c2cc(Br)c3c(c2[nH]c1=O)CCCN3`, half-maximal inhibition in assay [2] (IC50) required 9 µM.
On the same count and under the same terms, as for `CN1Cc2c(S(=O)(=O)N(C)C)cc3c(N=O)c(O)[nH]c3c2C1`, the figure is 0.6 µM.
As for `CCN1CCc2ccc3[nH]c(=O)c(=O)[nH]c3c2C1`, the results for the IC50 in assay [1] and in assay [2] were 20 µM and 41 µM, respectively.
In the case of `CC(=O)Nc1cc2[nH]c(=O)c(=O)[nH]c2c2c1CCN(C)C2`, the concentration for half-maximal inhibition (IC50) in assay [3], in assay [1] and in assay [2] was over 100 µM throughout.
Turning to `O=c1[nH]c2cc(Br)c3c(c2[nH]c1=O)CNCC3`, the values for the IC50 in assay [3], in assay [1] and in assay [2] were 1 µM, 1.5 µM and 3.5 µM, respectively.
As to `CCN1CCc2c(ccc3nc(O)c(O)nc23)C1`, the concentration for half-maximal inhibition (IC50) in assay [1] was 37 µM; in assay [2], 21 µM.
Consider `CN1CCc2c(ccc3[nH]c(=O)c(=O)[nH]c23)C1`, for which the IC50 in assay [3] is over 100 µM; in assay [1], 29.2 µM; in assay [2], 6.5 µM.
The like results for `O=c1[nH]c2ccc3c(c2[nH]c1=O)NCCC3` were, in that order, 1.3 µM, 11 µM and 2.2 µM.
The matching figures for `CCCCCCCN1CCc2c(ccc3[nH]c(=O)c(=O)[nH]c23)C1`: over 100 µM, 45 µM and over 100 µM.
In the case of `CCCN1CCc2c(c(Br)cc3nc(O)c(O)nc23)C1`, the half-maximal inhibitory concentration (IC50) in assay [3] is over 10 µM; in assay [1], 6.4 µM; in assay [2], 1.1 µM.
For `CCN1CCc2c(c(Br)cc3[nH]c(=O)c(=O)[nH]c23)C1`, the IC50 in assay [3] is 267 µM; in assay [1], 14 µM; in assay [2], 1.3 µM.
Turning to `CCOC(=O)c1nc2cc(Br)c3c(c2nc1O)CCN(C)C3`, the IC50 in assay [2] was over 100 µM.
In the case of `CCC(C)CN1CCc2c(ccc3nc(O)c(O)nc23)C1` (configuration not stated), the IC50 is over 100 µM in assay [3], 48 µM in assay [1] and over 100 µM in assay [2].
For the compound `Cc1cc2[nH]c(=O)c(=O)[nH]c2c2c1CN(C)CC2`, the concentration for half-maximal inhibition (IC50) is over 10 µM in assay [3], 6.7 µM in assay [1] and 17.6 µM in assay [2].
`CC(C)CCN1CCc2ccc3nc(O)c(O)nc3c2C1`: the IC50 came out at 25 µM in assay [1] and 123 µM in assay [2].
Consider `CCOC(=O)C(=O)N1CCCc2c1ccc1[nH]c(=O)c(=O)[nH]c21`, for which the figures for the IC50 in assay [3], in assay [1] and in assay [2] were 50 µM, 20 µM and 13 µM, respectively.
For `CN1CCc2c(N)cc3[nH]c(=O)c(=O)[nH]c3c2C1`, the IC50 is over 100 µM in assay [3], 28 µM in assay [1] and 100 µM in assay [2].
Take `CCCN1CCc2c(ccc3[nH]c(=O)c(=O)[nH]c23)C1`: the IC50 in assay [1] was 23 µM; in assay [2], 18 µM.
`O=C(NS(=O)(=O)c1ccccc1)c1nc2cc(Cl)c(Cl)cc2[nH]c1=O`: the IC50 in assay [2] was 4.3 µM.
In assay [2], `CN1CCCc2c1ccc1nc(O)c(O)nc21` yielded a concentration for half-maximal inhibition (IC50) of 24 µM.
`O=c1[nH]c2cc(-n3ccnc3)c([N+](=O)[O-])cc2[nH]c1=O` [YM-90K]: the IC50 in assay [2] worked out at 0.2 µM.
In the case of `CN1CCc2c(c(S(=O)(=O)c3ccccc3)cc3nc(O)c(O)nc23)C1`, the concentration for half-maximal inhibition (IC50) in assay [1] came out at 72 µM; in assay [2], 96 µM.
The like results for `COC(=O)c1cc2nc(O)c(O)nc2c2c1CN(C)CC2` were, in that order, 22 µM and 44 µM.
`COC(=O)CC1c2ccc(Cl)cc2NC(=O)C1[N+](=O)[O-]` (configuration not stated) had an IC50 in assay [2] of 139 µM.
With `CCC(C)N1CCc2ccc3nc(O)c(O)nc3c2C1` (configuration not stated), the concentration for half-maximal inhibition (IC50) in assay [1] was 21 µM; in assay [2], over 100 µM.
In assay [2], `CCc1cnc2c(O)nc3cc([N+](=O)[O-])c(-n4ccnc4)cc3n12` registered an IC50 of 0.02 µM.
The same measure, in the same setting: the value for `CCC(C)CN1CCc2ccc3nc(O)c(O)nc3c2C1` (configuration not stated) was over 100 µM.
